From ChEMBL document CHEMBL1122618, “Total chemical synthesis and antitumor evaluation of 4-demethoxy-10,10-dimethyldaunomycin” (1984)

Test system: Mus musculus
Test: The compound was tested intraperitoneally against P388 acute lymphocytic leukemia in mice (dose 10 mg/kg)
Assay type: functional
Settings: route intraperitoneal

`CC(=O)[C@@]1(O)C[C@H](OC2CC(N)C(O)C(C)O2)c2c(O)c3c(c(O)c2C1(C)C)C(=O)c1ccccc1C3=O` (stereo partly specified) was tested, and the T/C was >316.
